Experimental data from ChEMBL document CHEMBL5728174 (2020).

How the values were obtained:
[1] = (§1) After a 3-day incubation at 37° C. cell viability was determined by the MTT method as described by Pauwels et al. (J. Virol. Methods 1988, 20, 309-321).To determine the cytotoxicity, cells were seeded at an initial density of 1×10^6 cells/mL in 96 well plates containing Minimum Essential Medium with Earles's salts (MEM-E), L-glutamine, 1 mM sodium pyruvate and 25 mg/L kanamycin, supplemented with 10% fetal bovine serum. Cell cultures were then incubated at 37° C. in a humidified 5% CO2 atmosphere in the absence or presence of serial dilutions of test compounds. Cell viability was determined by the MTT method.; format: cell-based
[2] = as §1; format: cell-based; remark: listed apart in the source

Measured: EC50

CC(C)OC(=O)[C@H](C)N[P@](=O)(OCC1O[C@@H](n2ccc(=O)[nH]c2=O)[C@](C)(F)[C@@H]1O)Oc1ccccc1 (some centres undefined)
> 100 µM: [1] | [1]; BHK-21, 72 h | [2] | [2]; 72 h
